Measured values from the supplement of paper PMC10307832.

Experiments:
Assay in all cases: relative viability (nuclei count vs DMSO), 5 days (fraction); higher = more cells survive
Pazopanib + Pictilisib = compound: Cc1ccc(Nc2nccc(N(C)c3ccc4c(C)n(C)nc4c3)n2)cc1S(N)(=O)=O [Pazopanib] + CS(=O)(=O)N1CCN(Cc2cc3nc(-c4cccc5[nH]ncc45)nc(N4CCOCC4)c3s2)CC1 [Pictilisib] (partner 1 µM)
Procedure, shortened: (§1)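 Each reported value is a median over duplicate plates. It expresses relative viability: treated-well nuclei count divided by vehicle-well nuclei count. Lung cancer cell lines in 1536-well plates were dosed by pin tool a day after seeding, alone with one drug or with a fixed anchor-drug dose plus five library-drug doses (not always all listed) in √10 steps, and nuclei were counted after 5 days.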

Ponatinib + Foretinib = compound: Cc1ccc(C(=O)Nc2ccc(CN3CCN(C)CC3)c(C(F)(F)F)c2)cc1C#Cc1cnc2cccnn12 [Ponatinib] + COc1cc2c(Oc3ccc(NC(=O)C4(C(=O)Nc5ccc(F)cc5)CC4)cc3F)ccnc2cc1OCCCN1CCOCC1 [Foretinib] (partner 0.25 µM)
Procedure, shortened: as §1

Pazopanib + Trametinib = compound: Cc1ccc(Nc2nccc(N(C)c3ccc4c(C)n(C)nc4c3)n2)cc1S(N)(=O)=O [Pazopanib] + CC(=O)Nc1cccc(-n2c(=O)n(C3CC3)c(=O)c3c(Nc4ccc(I)cc4F)n(C)c(=O)c(C)c32)c1 [Trametinib] (partner 0.02 µM)
Procedure, shortened: as §1

Ponatinib + Crizotinib = compound: Cc1ccc(C(=O)Nc2ccc(CN3CCN(C)CC3)c(C(F)(F)F)c2)cc1C#Cc1cnc2cccnn12 [Ponatinib] + C[C@@H](Oc1cc(-c2cnn(C3CCNCC3)c2)cnc1N)c1c(Cl)ccc(F)c1Cl [Crizotinib] (partner 1 µM)
Procedure, shortened: as §1

NCI-H322M
relative viability (Pazopanib + Pictilisib; first compound 0.01 µM): 0.498
relative viability (Pazopanib + Pictilisib; first compound 0.03162 µM): 0.564
relative viability (Pazopanib + Pictilisib; first compound 0.1 µM): 0.582
relative viability (Pazopanib + Pictilisib; first compound 0.3162 µM): 0.571
relative viability (Pazopanib + Pictilisib; first compound 1 µM): 0.54
relative viability (Ponatinib + Foretinib; first compound 0.002 µM): 0.956
relative viability (Ponatinib + Foretinib; first compound 0.006325 µM): 0.976
relative viability (Ponatinib + Foretinib; first compound 0.06325 µM): 1.02
relative viability (Ponatinib + Foretinib; first compound 0.2 µM): 0.814
relative viability (Pazopanib + Trametinib; first compound 0.01 µM): 0.513
relative viability (Pazopanib + Trametinib; first compound 0.03162 µM): 0.471
relative viability (Pazopanib + Trametinib; first compound 0.1 µM): 0.482
relative viability (Pazopanib + Trametinib; first compound 0.3162 µM): 0.452
relative viability (Pazopanib + Trametinib; first compound 1 µM): 0.489
relative viability (Ponatinib + Crizotinib; first compound 0.002 µM): 0.913
relative viability (Ponatinib + Crizotinib; first compound 0.006325 µM): 0.961
relative viability (Ponatinib + Crizotinib; first compound 0.06325 µM): 0.816
relative viability (Ponatinib + Crizotinib; first compound 0.2 µM): 0.66

HCC-827
relative viability (Pazopanib + Pictilisib; first compound 0.01 µM): 0.894
relative viability (Pazopanib + Pictilisib; first compound 0.03162 µM): 1.17
relative viability (Pazopanib + Pictilisib; first compound 0.1 µM): 1.03
relative viability (Pazopanib + Pictilisib; first compound 0.3162 µM): 0.946
relative viability (Pazopanib + Pictilisib; first compound 1 µM): 1.12
relative viability (Ponatinib + Foretinib; first compound 0.002 µM): 0.971
relative viability (Ponatinib + Foretinib; first compound 0.006325 µM): 1.02
relative viability (Ponatinib + Foretinib; first compound 0.06325 µM): 0.997
relative viability (Ponatinib + Foretinib; first compound 0.2 µM): 1
relative viability (Pazopanib + Trametinib; first compound 0.01 µM): 0.558
relative viability (Pazopanib + Trametinib; first compound 0.03162 µM): 0.551
relative viability (Pazopanib + Trametinib; first compound 0.1 µM): 0.546
relative viability (Pazopanib + Trametinib; first compound 0.3162 µM): 0.547
relative viability (Pazopanib + Trametinib; first compound 1 µM): 0.559
relative viability (Ponatinib + Crizotinib; first compound 0.002 µM): 0.819
relative viability (Ponatinib + Crizotinib; first compound 0.006325 µM): 0.964
relative viability (Ponatinib + Crizotinib; first compound 0.06325 µM): 0.924
relative viability (Ponatinib + Crizotinib; first compound 0.2 µM): 0.928

SW 1573
relative viability (Pazopanib + Pictilisib; first compound 0.01 µM): 0.412
relative viability (Pazopanib + Pictilisib; first compound 0.03162 µM): 0.531
relative viability (Pazopanib + Pictilisib; first compound 0.1 µM): 0.514
relative viability (Pazopanib + Pictilisib; first compound 0.3162 µM): 0.632
relative viability (Pazopanib + Pictilisib; first compound 1 µM): 0.537
relative viability (Ponatinib + Foretinib; first compound 0.002 µM): 0.75
relative viability (Ponatinib + Foretinib; first compound 0.006325 µM): 0.767
relative viability (Ponatinib + Foretinib; first compound 0.06325 µM): 0.922
relative viability (Ponatinib + Foretinib; first compound 0.2 µM): 0.864
relative viability (Pazopanib + Trametinib; first compound 0.01 µM): 0.604
relative viability (Pazopanib + Trametinib; first compound 0.03162 µM): 0.671
relative viability (Pazopanib + Trametinib; first compound 0.1 µM): 0.604
relative viability (Pazopanib + Trametinib; first compound 0.3162 µM): 0.649
relative viability (Pazopanib + Trametinib; first compound 1 µM): 0.494
relative viability (Ponatinib + Crizotinib; first compound 0.002 µM): 0.707
relative viability (Ponatinib + Crizotinib; first compound 0.006325 µM): 0.876
relative viability (Ponatinib + Crizotinib; first compound 0.06325 µM): 0.887
relative viability (Ponatinib + Crizotinib; first compound 0.2 µM): 0.608

NCI-H1975
relative viability (Pazopanib + Pictilisib; first compound 0.01 µM): 0.263
relative viability (Pazopanib + Pictilisib; first compound 0.03162 µM): 0.281
relative viability (Pazopanib + Pictilisib; first compound 0.1 µM): 0.316
relative viability (Pazopanib + Pictilisib; first compound 0.3162 µM): 0.309
relative viability (Pazopanib + Pictilisib; first compound 1 µM): 0.338
relative viability (Ponatinib + Foretinib; first compound 0.002 µM): 0.911
relative viability (Ponatinib + Foretinib; first compound 0.006325 µM): 0.955
relative viability (Ponatinib + Foretinib; first compound 0.06325 µM): 1.03
relative viability (Ponatinib + Foretinib; first compound 0.2 µM): 1.01
relative viability (Pazopanib + Trametinib; first compound 0.01 µM): 0.277
relative viability (Pazopanib + Trametinib; first compound 0.03162 µM): 0.323
relative viability (Pazopanib + Trametinib; first compound 0.1 µM): 0.369
relative viability (Pazopanib + Trametinib; first compound 0.3162 µM): 0.373
relative viability (Pazopanib + Trametinib; first compound 1 µM): 0.401
relative viability (Ponatinib + Crizotinib; first compound 0.002 µM): 0.929
relative viability (Ponatinib + Crizotinib; first compound 0.006325 µM): 1.02
relative viability (Ponatinib + Crizotinib; first compound 0.06325 µM): 1.01
relative viability (Ponatinib + Crizotinib; first compound 0.2 µM): 0.943

NCI-H1651
relative viability (Pazopanib + Pictilisib; first compound 0.01 µM): 0.456
relative viability (Pazopanib + Pictilisib; first compound 0.03162 µM): 0.542
relative viability (Pazopanib + Pictilisib; first compound 0.1 µM): 0.494
relative viability (Pazopanib + Pictilisib; first compound 0.3162 µM): 0.611
relative viability (Pazopanib + Pictilisib; first compound 1 µM): 0.684
relative viability (Ponatinib + Foretinib; first compound 0.002 µM): 0.765
relative viability (Ponatinib + Foretinib; first compound 0.006325 µM): 0.777
relative viability (Ponatinib + Foretinib; first compound 0.06325 µM): 0.888
relative viability (Ponatinib + Foretinib; first compound 0.2 µM): 0.814
relative viability (Pazopanib + Trametinib; first compound 0.01 µM): 0.833
relative viability (Pazopanib + Trametinib; first compound 0.03162 µM): 0.831
relative viability (Pazopanib + Trametinib; first compound 0.1 µM): 0.814
relative viability (Pazopanib + Trametinib; first compound 0.3162 µM): 0.808
relative viability (Pazopanib + Trametinib; first compound 1 µM): 0.862
relative viability (Ponatinib + Crizotinib; first compound 0.002 µM): 0.835
relative viability (Ponatinib + Crizotinib; first compound 0.006325 µM): 0.852
relative viability (Ponatinib + Crizotinib; first compound 0.06325 µM): 0.897
relative viability (Ponatinib + Crizotinib; first compound 0.2 µM): 0.876

NCI-H460
relative viability (Pazopanib + Pictilisib; first compound 0.01 µM): 0.275
relative viability (Pazopanib + Pictilisib; first compound 0.03162 µM): 0.339
relative viability (Pazopanib + Pictilisib; first compound 0.1 µM): 0.345
relative viability (Pazopanib + Pictilisib; first compound 0.3162 µM): 0.429
relative viability (Pazopanib + Pictilisib; first compound 1 µM): 0.407
relative viability (Ponatinib + Foretinib; first compound 0.002 µM): 0.92
relative viability (Ponatinib + Foretinib; first compound 0.006325 µM): 0.938
relative viability (Ponatinib + Foretinib; first compound 0.06325 µM): 1
relative viability (Ponatinib + Foretinib; first compound 0.2 µM): 0.967
relative viability (Pazopanib + Trametinib; first compound 0.01 µM): 0.087
relative viability (Pazopanib + Trametinib; first compound 0.03162 µM): 0.16
relative viability (Pazopanib + Trametinib; first compound 0.1 µM): 0.283
relative viability (Pazopanib + Trametinib; first compound 0.3162 µM): 0.108
relative viability (Pazopanib + Trametinib; first compound 1 µM): 0.287
relative viability (Ponatinib + Crizotinib; first compound 0.002 µM): 0.764
relative viability (Ponatinib + Crizotinib; first compound 0.006325 µM): 0.863
relative viability (Ponatinib + Crizotinib; first compound 0.06325 µM): 1.02
relative viability (Ponatinib + Crizotinib; first compound 0.2 µM): 0.908

LCLC-103H
relative viability (Pazopanib + Pictilisib; first compound 0.01 µM): 0.531
relative viability (Pazopanib + Pictilisib; first compound 0.03162 µM): 0.575
relative viability (Pazopanib + Pictilisib; first compound 0.1 µM): 0.635
relative viability (Pazopanib + Pictilisib; first compound 0.3162 µM): 0.764
relative viability (Pazopanib + Pictilisib; first compound 1 µM): 0.588
relative viability (Ponatinib + Foretinib; first compound 0.002 µM): 0.745
relative viability (Ponatinib + Foretinib; first compound 0.006325 µM): 0.755
relative viability (Ponatinib + Foretinib; first compound 0.06325 µM): 0.775
relative viability (Ponatinib + Foretinib; first compound 0.2 µM): 0.688
relative viability (Pazopanib + Trametinib; first compound 0.01 µM): 0.589
relative viability (Pazopanib + Trametinib; first compound 0.03162 µM): 0.725
relative viability (Pazopanib + Trametinib; first compound 0.1 µM): 0.68
relative viability (Pazopanib + Trametinib; first compound 0.3162 µM): 0.646
relative viability (Pazopanib + Trametinib; first compound 1 µM): 0.723
relative viability (Ponatinib + Crizotinib; first compound 0.002 µM): 1.03
relative viability (Ponatinib + Crizotinib; first compound 0.006325 µM): 1.13
relative viability (Ponatinib + Crizotinib; first compound 0.06325 µM): 1.17
relative viability (Ponatinib + Crizotinib; first compound 0.2 µM): 1.03

LCLC-97TM1
relative viability (Pazopanib + Pictilisib; first compound 0.03162 µM): 0.196
relative viability (Pazopanib + Pictilisib; first compound 0.1 µM): 0.195
relative viability (Pazopanib + Pictilisib; first compound 0.3162 µM): 0.201
relative viability (Pazopanib + Pictilisib; first compound 1 µM): 0.179
relative viability (Ponatinib + Foretinib; first compound 0.002 µM): 0.915
relative viability (Ponatinib + Foretinib; first compound 0.006325 µM): 0.967
relative viability (Ponatinib + Foretinib; first compound 0.06325 µM): 0.944
relative viability (Ponatinib + Foretinib; first compound 0.2 µM): 0.675
relative viability (Pazopanib + Trametinib; first compound 0.03162 µM): 0.218
relative viability (Pazopanib + Trametinib; first compound 0.1 µM): 0.203
relative viability (Pazopanib + Trametinib; first compound 0.3162 µM): 0.209
relative viability (Pazopanib + Trametinib; first compound 1 µM): 0.279
relative viability (Ponatinib + Crizotinib; first compound 0.006325 µM): 0.369
relative viability (Ponatinib + Crizotinib; first compound 0.2 µM): 0.413

NCI-H838
relative viability (Pazopanib + Pictilisib; first compound 0.01 µM): 0.382
relative viability (Pazopanib + Pictilisib; first compound 0.03162 µM): 0.476
relative viability (Pazopanib + Pictilisib; first compound 0.1 µM): 0.497
relative viability (Pazopanib + Pictilisib; first compound 0.3162 µM): 0.564
relative viability (Pazopanib + Pictilisib; first compound 1 µM): 0.589
relative viability (Ponatinib + Foretinib; first compound 0.002 µM): 1.02
relative viability (Ponatinib + Foretinib; first compound 0.006325 µM): 1.03
relative viability (Ponatinib + Foretinib; first compound 0.06325 µM): 1.05
relative viability (Ponatinib + Foretinib; first compound 0.2 µM): 0.955
relative viability (Pazopanib + Trametinib; first compound 0.01 µM): 0.465
relative viability (Pazopanib + Trametinib; first compound 0.03162 µM): 0.558
relative viability (Pazopanib + Trametinib; first compound 0.1 µM): 0.483
relative viability (Pazopanib + Trametinib; first compound 0.3162 µM): 0.599
relative viability (Pazopanib + Trametinib; first compound 1 µM): 0.594
relative viability (Ponatinib + Crizotinib; first compound 0.002 µM): 0.793
relative viability (Ponatinib + Crizotinib; first compound 0.006325 µM): 0.95
relative viability (Ponatinib + Crizotinib; first compound 0.06325 µM): 0.813
relative viability (Ponatinib + Crizotinib; first compound 0.2 µM): 0.789
